Results taken from the supplement of paper PMC10307832.

Tests used:
Test in all cases: relative viability (nuclei count vs DMSO), 5 days (fraction); higher = more cells survive
[1] = system: 201T
How it was run: (§1)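 Lung cancer cell lines, seeded in 1536-well plates, were treated the following day by pin tool with a single drug or with five library-drug doses (not always all listed) in √10 steps on top of a fixed anchor-drug dose. Cells were fixed and nuclei stained in one step after 5 days, and nuclei were counted. Relative viability is the nuclei count for treated wells divided by that for vehicle wells, reported as medians of duplicate plates.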

[2] = system: A-427
How it was run: as §1

[3] = system: ABC-1
How it was run: as §1

[4] = system: BEN
How it was run: as §1

[5] = system: CAL-12T
How it was run: as §1

[6] = system: H3255
How it was run: as §1

[7] = system: HCC-15
How it was run: as §1

[8] = system: LC-2-ad
How it was run: as §1

[9] = system: LCLC-97TM1
How it was run: as §1

[10] = system: NCI-H1650
How it was run: as §1

[11] = system: NCI-H1651
How it was run: as §1

[12] = system: NCI-H1792
How it was run: as §1

[13] = system: NCI-H1915
How it was run: as §1

[14] = system: NCI-H2023
How it was run: as §1

[15] = system: NCI-H2087
How it was run: as §1

[16] = system: NCI-H441
How it was run: as §1

[17] = system: NCI-H460
How it was run: as §1

[18] = system: NCI-H520
How it was run: as §1

[19] = system: NCI-H596
How it was run: as §1

[20] = system: NCI-H650
How it was run: as §1

[21] = system: NCI-H661
How it was run: as §1

[22] = system: NCI-H727
How it was run: as §1

[23] = system: PC-3 [JPC-3]
How it was run: as §1

Q: C[C@@H]1CN(CC(=O)Nc2ccc3c(c2)Cc2cccc(-c4cc(=O)cc(N5CCOCC5)o4)c2S3)C[C@H](C)O1 + CC(C)C[C@H](NC(=O)[C@H](Cc1ccccc1)NC(=O)c1cnccn1)B(O)O [Bortezomib] (partner 0.002 µM) was tested. Which relative viability ([1]; first compound 0.04 µM) did it give?
A: The relative viability was 1.12.

Q: What about the relative viability ([1]; first compound 0.1265 µM) of the same compound?
A: Its relative viability is 1.04.

Q: What about the relative viability ([1]; first compound 0.4 µM) of the same compound?
A: Its relative viability is 1.16.

Q: And the relative viability ([1]; first compound 4 µM)?
A: The relative viability was 1.09.

Q: And the relative viability ([2]; first compound 0.04 µM)?
A: The relative viability was 1.02.

Q: And the relative viability ([2]; first compound 0.1265 µM)?
A: The relative viability was 0.993.

Q: And the relative viability ([2]; first compound 0.4 µM)?
A: Its relative viability is 0.952.

Q: And the relative viability ([2]; first compound 4 µM)?
A: The relative viability was 1.03.

Q: What about the relative viability ([3]; first compound 0.1265 µM) of the same compound?
A: The relative viability was 0.3.

Q: What about the relative viability ([3]; first compound 0.4 µM) of the same compound?
A: The relative viability was 0.304.

Q: What about the relative viability ([3]; first compound 4 µM) of the same compound?
A: The relative viability was 0.265.

Q: And the relative viability ([4]; first compound 0.04 µM)?
A: The relative viability was 0.624.

Q: What about the relative viability ([4]; first compound 0.1265 µM) of the same compound?
A: The relative viability was 0.71.

Q: What about the relative viability ([4]; first compound 0.4 µM) of the same compound?
A: Its relative viability is 0.861.

Q: And the relative viability ([4]; first compound 4 µM)?
A: The relative viability was 0.788.

Q: What about the relative viability ([5]; first compound 0.04 µM) of the same compound?
A: Its relative viability is 1.06.

Q: What about the relative viability ([5]; first compound 0.1265 µM) of the same compound?
A: The relative viability was 0.954.

Q: What about the relative viability ([5]; first compound 0.4 µM) of the same compound?
A: Its relative viability is 1.06.

Q: What about the relative viability ([5]; first compound 4 µM) of the same compound?
A: The relative viability was 0.796.

Q: What about the relative viability ([6]; first compound 0.04 µM) of the same compound?
A: Its relative viability is 0.495.

Q: What about the relative viability ([6]; first compound 0.1265 µM) of the same compound?
A: The relative viability was 0.771.

Q: What about the relative viability ([6]; first compound 0.4 µM) of the same compound?
A: Its relative viability is 0.534.

Q: What about the relative viability ([6]; first compound 4 µM) of the same compound?
A: The relative viability was 0.582.

Q: What about the relative viability ([7]; first compound 0.04 µM) of the same compound?
A: Its relative viability is 1.

Q: What about the relative viability ([7]; first compound 0.1265 µM) of the same compound?
A: The relative viability was 0.948.

Q: And the relative viability ([7]; first compound 0.4 µM)?
A: The relative viability was 1.03.

Q: What about the relative viability ([7]; first compound 4 µM) of the same compound?
A: Its relative viability is 0.836.

Q: And the relative viability ([8]; first compound 0.04 µM)?
A: Its relative viability is 1.09.

Q: What about the relative viability ([8]; first compound 0.1265 µM) of the same compound?
A: The relative viability was 0.981.

Q: What about the relative viability ([8]; first compound 0.4 µM) of the same compound?
A: Its relative viability is 0.936.

Q: And the relative viability ([8]; first compound 4 µM)?
A: Its relative viability is 0.847.

Q: What about the relative viability ([9]; first compound 0.1265 µM) of the same compound?
A: Its relative viability is 0.615.

Q: And the relative viability ([9]; first compound 0.4 µM)?
A: Its relative viability is 0.33.

Q: And the relative viability ([9]; first compound 4 µM)?
A: The relative viability was 0.391.

Q: What about the relative viability ([10]; first compound 0.04 µM) of the same compound?
A: Its relative viability is 0.221.

Q: What about the relative viability ([10]; first compound 0.1265 µM) of the same compound?
A: Its relative viability is 0.23.

Q: And the relative viability ([10]; first compound 0.4 µM)?
A: Its relative viability is 0.192.

Q: And the relative viability ([10]; first compound 4 µM)?
A: The relative viability was 0.183.

Q: What about the relative viability ([11]; first compound 0.04 µM) of the same compound?
A: Its relative viability is 0.848.

Q: What about the relative viability ([11]; first compound 0.1265 µM) of the same compound?
A: The relative viability was 0.866.

Q: And the relative viability ([11]; first compound 0.4 µM)?
A: The relative viability was 0.922.

Q: And the relative viability ([11]; first compound 4 µM)?
A: The relative viability was 0.976.

Q: And the relative viability ([12]; first compound 0.04 µM)?
A: The relative viability was 0.939.

Q: And the relative viability ([12]; first compound 0.1265 µM)?
A: Its relative viability is 0.913.

Q: What about the relative viability ([12]; first compound 0.4 µM) of the same compound?
A: Its relative viability is 0.924.

Q: What about the relative viability ([12]; first compound 4 µM) of the same compound?
A: The relative viability was 0.859.

Q: And the relative viability ([13]; first compound 0.04 µM)?
A: The relative viability was 0.905.

Q: And the relative viability ([13]; first compound 0.1265 µM)?
A: Its relative viability is 0.964.

Q: What about the relative viability ([13]; first compound 0.4 µM) of the same compound?
A: Its relative viability is 1.03.

Q: And the relative viability ([13]; first compound 4 µM)?
A: The relative viability was 0.73.

Q: And the relative viability ([14]; first compound 0.04 µM)?
A: Its relative viability is 1.06.

Q: And the relative viability ([14]; first compound 0.1265 µM)?
A: The relative viability was 0.969.

Q: What about the relative viability ([14]; first compound 0.4 µM) of the same compound?
A: The relative viability was 0.783.

Q: What about the relative viability ([14]; first compound 4 µM) of the same compound?
A: The relative viability was 0.876.

Q: And the relative viability ([15]; first compound 0.04 µM)?
A: Its relative viability is 0.751.

Q: And the relative viability ([15]; first compound 0.1265 µM)?
A: The relative viability was 0.808.

Q: And the relative viability ([15]; first compound 0.4 µM)?
A: The relative viability was 0.948.

Q: And the relative viability ([15]; first compound 4 µM)?
A: The relative viability was 0.652.

Q: What about the relative viability ([16]; first compound 0.04 µM) of the same compound?
A: Its relative viability is 0.6.

Q: What about the relative viability ([16]; first compound 0.4 µM) of the same compound?
A: The relative viability was 0.445.

Q: And the relative viability ([16]; first compound 4 µM)?
A: The relative viability was 0.489.

Q: What about the relative viability ([17]; first compound 0.04 µM) of the same compound?
A: The relative viability was 1.13.

Q: And the relative viability ([17]; first compound 0.1265 µM)?
A: The relative viability was 1.05.

Q: And the relative viability ([17]; first compound 0.4 µM)?
A: Its relative viability is 1.24.

Q: What about the relative viability ([17]; first compound 4 µM) of the same compound?
A: Its relative viability is 0.759.

Q: What about the relative viability ([18]; first compound 0.04 µM) of the same compound?
A: The relative viability was 0.906.

Q: What about the relative viability ([18]; first compound 0.1265 µM) of the same compound?
A: The relative viability was 0.671.

Q: And the relative viability ([18]; first compound 0.4 µM)?
A: The relative viability was 0.247.

Q: What about the relative viability ([18]; first compound 4 µM) of the same compound?
A: Its relative viability is 0.584.

Q: What about the relative viability ([19]; first compound 0.04 µM) of the same compound?
A: Its relative viability is 0.937.

Q: What about the relative viability ([19]; first compound 0.1265 µM) of the same compound?
A: The relative viability was 1.12.

Q: What about the relative viability ([19]; first compound 0.4 µM) of the same compound?
A: The relative viability was 1.01.

Q: And the relative viability ([19]; first compound 4 µM)?
A: Its relative viability is 0.923.

Q: And the relative viability ([20]; first compound 0.04 µM)?
A: The relative viability was 0.742.

Q: What about the relative viability ([20]; first compound 0.1265 µM) of the same compound?
A: Its relative viability is 0.801.

Q: What about the relative viability ([20]; first compound 0.4 µM) of the same compound?
A: Its relative viability is 0.761.

Q: And the relative viability ([20]; first compound 4 µM)?
A: The relative viability was 0.552.

Q: What about the relative viability ([21]; first compound 0.1265 µM) of the same compound?
A: The relative viability was 0.798.

Q: What about the relative viability ([21]; first compound 0.4 µM) of the same compound?
A: Its relative viability is 0.765.

Q: What about the relative viability ([21]; first compound 4 µM) of the same compound?
A: Its relative viability is 0.778.

Q: And the relative viability ([22]; first compound 0.04 µM)?
A: Its relative viability is 0.892.

Q: And the relative viability ([22]; first compound 0.1265 µM)?
A: The relative viability was 0.824.

Q: And the relative viability ([22]; first compound 0.4 µM)?
A: The relative viability was 0.804.

Q: What about the relative viability ([22]; first compound 4 µM) of the same compound?
A: The relative viability was 0.878.

Q: And the relative viability ([23]; first compound 0.04 µM)?
A: Its relative viability is 0.861.

Q: And the relative viability ([23]; first compound 0.1265 µM)?
A: The relative viability was 0.771.

Q: What about the relative viability ([23]; first compound 0.4 µM) of the same compound?
A: Its relative viability is 0.908.

Q: What about the relative viability ([23]; first compound 4 µM) of the same compound?
A: The relative viability was 0.677.
